Measured values from ChEMBL document CHEMBL5537185, “Discovery of the First-in-Class RORγ Covalent Inhibitors for Treatment of Castration-Resistant Prostate Cancer” (J Med Chem, 2024).
Active and inactive are the calls of the source. The rule behind the calls is not given here.

Assays:
[1] = molecular target: T1, Nuclear receptor ROR-gamma (Homo sapiens, UniProt P51449); assay: Inhibition of Gal4-fused RORgamma LBD (unknown origin) expressed in HEK293T cells incubated for 48 hrs by luciferase based assay; format: cell-based
T1 sequence (P51449 whole entry): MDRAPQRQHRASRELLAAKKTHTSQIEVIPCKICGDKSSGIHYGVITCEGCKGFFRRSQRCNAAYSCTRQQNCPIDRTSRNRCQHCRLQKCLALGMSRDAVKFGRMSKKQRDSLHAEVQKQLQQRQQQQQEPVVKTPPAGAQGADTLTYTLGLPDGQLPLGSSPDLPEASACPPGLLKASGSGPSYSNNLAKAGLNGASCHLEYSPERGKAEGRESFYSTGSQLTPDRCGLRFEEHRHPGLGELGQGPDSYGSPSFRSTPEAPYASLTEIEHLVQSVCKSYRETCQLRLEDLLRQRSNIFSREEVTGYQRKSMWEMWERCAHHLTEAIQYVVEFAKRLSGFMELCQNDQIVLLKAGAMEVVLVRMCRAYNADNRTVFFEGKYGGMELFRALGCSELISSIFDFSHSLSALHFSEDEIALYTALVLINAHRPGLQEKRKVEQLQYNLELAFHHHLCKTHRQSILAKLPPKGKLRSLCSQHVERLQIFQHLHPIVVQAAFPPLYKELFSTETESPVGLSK

CWR22R [2] = assay: Antiproliferative activity against human 22Rv1 cells incubated for 4 days by CCK8 assay; conditions: 22Rv1, 96 h
LNCaP = assay: Antiproliferative activity against human LNCaP cells incubated for 4 days by CCK8 assay; conditions: 96 h
[3] = Metabolic stability in mouse liver microsomes assessed as half life at 0.1 uM preincubated for 10 mins followed by NADPH addition and measured upto 60 mins by LC-MS/MS analysis; format: ADME, Microsome; conditions: time < 70 min
LNCaP C4-2B [4] = assay: Inhibition of colony formation in human LNCaP C4-2B cells compound addition at every 3 days and measured after 14 days by crystal violet staining based assay; format: functional, cell-based; conditions: dose 1.25-5 µM, time 14.0 day
CWR22R [5] = assay: Inhibition of colony formation in human 22Rv1 cells compound addition at every 3 days and measured after 14 days by crystal violet staining based assay; format: functional, cell-based; conditions: dose 1.25-5 µM, time 14.0 day
LNCaP C4-2B [6] = assay: Induction of apoptosis in human LNCaP C4-2B cells assessed as increase in caspase-7 activity at 1.25 to 5 uM by Western blot analysis; format: functional, cell-based; conditions: dose 1.25-5 µM
CWR22R [7] = assay: Induction of apoptosis in human 22Rv1 cells assessed as increase in caspase-3 activity at 1.25 to 5 uM by Western blot analysis; format: functional, cell-based; conditions: dose 1.25-5 µM
LNCaP C4-2B [8] = assay: Downregulation of AR expression in human LNCaP C4-2B cells at 1.25 to 5 uM incubated for 48 hrs by qRT-PCR analysis; format: functional, cell-based; conditions: dose 1.25-5 µM
LNCaP C4-2B [9] = assay: Downregulation of AR-V7 expression in human LNCaP C4-2B cells incubated for 48 hrs by qRT-PCR analysis; format: functional, cell-based; conditions: dose 1.25-5 µM
LNCaP C4-2B [10] = assay: Downregulation of KLK2 mRNA expression in human LNCaP C4-2B cells at 1.25 to 5 uM incubated for 48 hrs by qRT-PCR analysis; format: functional, cell-based; conditions: dose 1.25-5 µM
LNCaP C4-2B [11] = assay: Downregulation of KLK3 mRNA expression in human LNCaP C4-2B cells at 1.25 to 5 uM incubated for 48 hrs by qRT-PCR analysis; format: functional, cell-based; conditions: dose 1.25-5 µM
LNCaP C4-2B [12] = assay: Downregulation of NKX3-1 mRNA expression in human LNCaP C4-2B cells at 1.25 to 5 uM incubated for 48 hrs by qRT-PCR analysis; format: functional, cell-based; conditions: dose 1.25-5 µM
CWR22R [13] = assay: Downregulation of AR expression in human 22Rv1 cells incubated for 48 hrs by qRT-PCR analysis; format: functional, cell-based; conditions: dose 1.25-5 µM
CWR22R [14] = assay: Downregulation of AR-V7 expression in human 22Rv1 cells incubated for 48 hrs by qRT-PCR analysis; format: functional, cell-based; conditions: dose 1.25-5 µM
CWR22R [15] = assay: Downregulation of KLK3 mRNA expression in human 22Rv1 cells at 1.25 to 5 uM incubated for 48 hrs by qRT-PCR analysis; format: functional, cell-based; conditions: dose 1.25-5 µM
CWR22R [16] = assay: Downregulation of NKX3-1 mRNA expression in human 22Rv1 cells at 1.25 to 5 uM incubated for 48 hrs by qRT-PCR analysis; format: functional, cell-based; conditions: dose 1.25-5 µM
LNCaP C4-2B [17] = assay: Downregulation of AR expression in human LNCaP C4-2B cells at 1.25 to 5 uM by Western blot analysis; format: functional, cell-based; conditions: dose 1.25-5 µM, time 24-72 hrs, TDE = time-dependent effect
LNCaP C4-2B [18] = assay: Downregulation of AR-V7 expression in human LNCaP C4-2B cells at 1.25 to 5 uM by Western blot analysis; format: functional, cell-based; conditions: dose 1.25-5 µM, TDE = time-dependent effect
CWR22R [19] = assay: Downregulation of AR expression in human 22Rv1 cells at 1.25 to 5 uM by Western blot analysis; format: functional, cell-based; conditions: dose 1.25-5 µM, time 24-72 hrs, TDE = time-dependent effect
LNCaP C4-2B [20] = assay: Downregulation of AR-V7 expression in human LNCaP C4-2B cells incubated for 24 to 72 hrs by Western blot analysis; format: functional, cell-based; conditions: dose 1.25-5 µM, time 24-72 hrs
CWR22R [21] = assay: Downregulation of AR-V7 expression in human 22Rv1 cells incubated for 24 to 72 hrs by Western blot analysis; format: functional, cell-based; conditions: dose 1.25-5 µM, time 24-72 hrs
[22] = Half life in ICR mouse at 3 mg/kg, iv measured upto 24 hrs by LC-MS/MS analysis; format: ADME, organism-based; conditions: in vivo
[23] = Cmax in ICR mouse at 3 mg/kg, iv measured upto 24 hrs by LC-MS/MS analysis; format: ADME, organism-based; conditions: in vivo
[24] = AUClast in ICR mouse at 3 mg/kg, iv measured upto 24 hrs by LC-MS/MS analysis; format: ADME, organism-based; conditions: in vivo
[25] = AUCinfinity in ICR mouse at 3 mg/kg, iv measured upto 24 hrs by LC-MS/MS analysis; format: ADME, organism-based; conditions: in vivo
[26] = Clearance in ICR mouse at 3 mg/kg, iv measured upto 24 hrs by LC-MS/MS analysis; format: ADME, organism-based; conditions: in vivo
[27] = Volume of distribution at steady state in ICR mouse at 3 mg/kg, iv measured upto 24 hrs by LC-MS/MS analysis; format: ADME, organism-based; conditions: in vivo, read-out: Vdss
[28] = Cmax in ICR mouse at 10 mg/kg, po measured upto 24 hrs by LC-MS/MS analysis; format: ADME, organism-based; conditions: in vivo
[29] = AUClast in ICR mouse at 10 mg/kg, po measured upto 24 hrs by LC-MS/MS analysis; format: ADME, organism-based; conditions: in vivo
[30] = AUCinfinity in ICR mouse at 10 mg/kg, po measured upto 24 hrs by LC-MS/MS analysis; format: ADME, organism-based; conditions: in vivo
[31] = Oral bioavailability in ICR mouse at 10 mg/kg measured upto 24 hrs by LC-MS/MS analysis; format: ADME, organism-based; conditions: in vivo
CWR22R [32] = assay: Antitumor activity against human 22Rv1 cells xenografted in ip dosed NOD/SCID mouse assessed as tumor growth inhibition administered five times a week for 2 weeks and measured two times per week; format: functional, organism-based; conditions: dose 5-10 mg/kg
[33] = Toxicity in NOD/SCID mouse assessed as change in body weight at 5 to 10 mg/kg, ip administered five times a week for 2 weeks and measured two times per week; format: organism-based; conditions: in vivo, 336 h, dose 5-10 mg/kg

In the case of C=CC(=O)Nc1ccccc1-c1ccc(NC(=O)Cc2ccc(S(=O)(=O)CC)cc2)cc1Cl, the IC50 [1] is reported as 210 nM, the IC50 (CWR22R [2]) is reported as 770 nM and the IC50 (LNCaP) is reported as 630 nM. For the same molecule, the half-life at 0.1 µM [3] was 21.3 min, the inhibition (LNCaP C4-2B [4]) was “Dose-Dependent Effect” and the inhibition (CWR22R [5]) was “Dose-Dependent Effect”. The Activity (LNCaP C4-2B [6]) was “Active”, the Activity (CWR22R [7]) was “Active” and the Activity (LNCaP C4-2B [8]) was “Dose-Dependent Effect”. For the same molecule, the Activity (LNCaP C4-2B [9]) was “Dose-Dependent Effect”, the Activity (LNCaP C4-2B [10]) was “Active” and the Activity (LNCaP C4-2B [11]) was “Active”. The Activity (LNCaP C4-2B [12]) was “Active”, the Activity (CWR22R [13]) was “Dose-Dependent Effect” and the Activity (CWR22R [14]) was “Dose-Dependent Effect”. The Activity (CWR22R [15]) was “Active”, the Activity (CWR22R [16]) was “Active” and the Activity (LNCaP C4-2B [17]) was “Tde”. The Activity (LNCaP C4-2B [18]) was “Tde”, the Activity (CWR22R [19]) was “Tde” and the Activity (LNCaP C4-2B [20]) was “Dose-Dependent Effect”. For the same molecule, the Activity (CWR22R [21]) was “Dose-Dependent Effect”, the half-life [22] was 13.2 min and the Cmax [23] was 2000 ng/mL. For the same molecule, the AUC(0-t) at 24 h [24] was 584 ng·h/mL, the AUC(0-inf) [25] was 585 ng·h/mL and the clearance [26] was 86.8 mL/min/kg. The Vd [27] was 0.75 L/kg, the Cmax [28] was 270 ng/mL and the AUC(0-t) at 24 h [29] was 248 ng·h/mL. The AUC(0-inf) [30] was 251 ng·h/mL, the bioavailability [31] was 12.7% and the Activity (CWR22R [32]) was “Dose-Dependent Effect”. The Activity [33] was “Non-Toxic”.
